Earlier results, collected in patent US6444224B1 (Interag, priority 1997, dated 2002).

Tests used:
pigs [1] = details: oral, once daily at feeding
pigs [2] = details: 15, 25, 50 mg per day (IM) for 14 days

SMILES | Effectiveness to control oestrus and ovulation (pigs [1]) | Control of the oestrus cycle (pigs [2]) | Fertility (pigs [2])
C=CC[C@]1(O)CC[C@H]2[C@@H]3CCC4=CC(=O)CCC4=C3C=C[C@@]21C [altrenogest] | effective |  | 
C=CC(C)NC(=S)NNC(=S)NC (stereo not shown) [methallibure] | effective |  | 
CC(=O)[C@H]1CC[C@H]2[C@@H]3CCC4=CC(=O)CC[C@]4(C)[C@H]3CC[C@]12C [progesterone] |  | results in control of the oestrus cycle | poor fertility results
